According to patent US6337348B1, “Oxy-vanadium (iv) complexes having spermicidal activity” (Parker Hughes Institute, priority 1998, dated 2002):

Assays:
Format in all cases: cell-based
human sperm [1] = assay: Mitochondrial transmembrane potential (JC-1 dye) flow cytometry; conditions: 100 μM, 3 hours, 37° C.
Excerpt: The loss of ΔΨm, a early marker for apoptosis was quantitated by flow cytometry using the lipophilic cationic dye, 5,5′,6,6′-tetrachloro 1,1′,3,3′-tetraethylbenzimidazolecarbocyanine iodide (JC-1) as described in Cossarizza et al., 1993, BBRC 197:40-45. This dye accumulates in the mitochondrial matrix under the influence of the ΔΨm. The molecule is able to selectively enter into mitochondria, the monomeric form emitting at 527 nm after excitation at 490 nm. However, depending on the membrane potential, JC-1is able to form J-aggregates that are associated with a large shift in emission (590 nm). The color of the dye changes reversibly from green to greenish orange at ΔΨm becomes more polarized.
To quantitate changes in sperm ΔΨm following oxovanadium (IV) complex exposure, highly motile fraction of sperm (10^7/ml) in duplicate aliquots, were incubated at 37° C. for 3 hours in BWW−0.3% BSA medium in the presence and absence of 100 μM each of the vanadocene complexes, VO(phen), VO(phen)2, VO(Me2—phen), VO(Me2—phen)2, VO(Cl—phen), VO(Cl—phen)2, VO(bipy), VO(bipy)2, VO(Me2—bipy), VO(Me2—bipy)2, and VO(Br,OH—acph)2. Following incubation, 10 μg/ml JC-1 (Molecular Probes, Eugene, Oreg.) was added from a stock solution in DMSO (1 mg/ml) to the sperm suspension and incubated for an additional 10 minutes. At the end of the incubation period, sperm were washed in Tyrode's salt solution (Sigma), resuspended in 200 μl, and analyzed by flow cytometry for JC-1-specific fluorescence. The excitation was at 488 nm; the emissions for green and red/orange fluorescence were 530 nm and 575 nm respectively. JC-1 monomer and aggregated fluorescence were simultaneously measured in oxovanadium (IV) complex-exposed and control sperm. The percentages of sperm positive for green, orange, and greenish orange were determined using the cutoff signals for JC-1 labeled motile sperm.

human sperm [2] = assay: FITC-Annexin V surface binding flow cytometry; conditions: 100 μM, 12 hours, 37° C.
Protocol: In order to examine the expression of phosphatidyl serine on the sperm surface following oxovanadium (IV) complex exposure, surface binding of FITC-Annexin V was evaluated by flow cyotometry as described in Vermes et al., 1995, J. Immunol. Meth., […]:39-51. One ml aliquots of highly motile sperm (10^7) in triplicate were incubated in BWW−0.3% BSA at 37° C. for 12 hours with and without 100 μM of each of the oxovanadium (IV) complexes VO(phen), VO(phen)2, VO(Me2—phen), VO(Me2—phen)2, VO(Cl—phen), VO(Cl—phen)2, VO(bipy), VO(bipy)2, VO(Me2—bipy), VO(Me2—bipy)2, and VO(Br,OH—acph)2 in 0.1% DMSO. After exposure to these complexes, sperm were washed with 1% Tyrode's salt solution containing 1% BSA (1% TBSA), and the pellets were resuspended in the same medium. The sperm suspension was reacted for 30 minutes at room temperature with 6 μg/ml of FITC-conjugated recombinant human Annexin V (Caltag Laboratories, San Francisco, Calif.). After two washes in Tyrode's salt solution, sperm were resuspended in 1% TBSA containing 1 μg/ml propidium iodide (PI) and analyzed for surface-bound Annexin V and PI-permeability by quantitative flow cytometry using an argon laser for excitation of fluorescence. Annexin V and PI binding were simultaneously measured in oxovanadium (IV) complex-exposed and control sperm as described previously (de Lamirande et al., 1993, Fertil Seril 59:1291-1295). The percentages of sperm positive for Annexin V and PI were determined using the cutoff signals for membrane-intact motile sperm. Two separate experiments were performed to assess the surface expression of phosphatidyl serine following exposure of sperm to oxovanadium (IV) complexes.

human sperm [3] = assay: DNA fragmentation by in situ nick-end labeling (TUNEL) flow cytometry; conditions: 100 μM, 24 hours, 37° C.
Protocol: A flow cytometric two-color terminal deoxynucleotidyl transferase (TdT) assay was employed to detect apoptotic sperm nuclei by TdT-mediated dUTP nick-end labeling (TUNEL, as described in Gavrieli et al., 1992, J. Cell Biol., 119:493-501). The comparative effect of the oxovanadium (IV) complexes, VO(phen), VO(phen)2, VO(Me2—phen), VO(Me2—phen)2, VO(Cl—phen), VO(Cl—phen)2, VO(bipy), VO(bipy)2, VO(Me2—bipy), VO(Me2—bipy)2, and VO(Br,OH—acph)2, to induce apoptosis was tested by incubating 1 ml duplicate aliquots of motile sperm (10^7/ml) in BWW−0.3% BSA at 37° C. for 24 hours with and without 100 μM each of the test compounds. Sperm were washed in phosphate-buffered saline (PBS)−1% BSA, fixed in 4% paraformaldehyde in PBS for 15 minutes. Following two washings in PBS, they were permeabilized with 0.1% Triton X-100 in 0.1% sodium citrate for 2 minutes on ice, and washed twice with PBS. New 3′-hydroxyl (3′—OH) end labeling of fragmented sperm nuclear DNA was performed using TdT and detected by fluorescein (FITC)-conjugated uridine triphosphate (dUTP) according to the manufacturer's recommendations (Boehringer-Mannheim, Indianapolis, Ind.). Sperm aliquots incubated without TdT enzyme served as a negative control. […] Oxovanadium (IV)-induced apopotosis of sperm was shown by an increase in the number of cells staining with FITC- dUTP (M2 gates). The M1 and M2 gates were used to demarcate non-apoptotic and apoptotic PI-counterstained sperm populations, respectively. Two separate experiments were performed to assess dUTP incorporation following exposure of sperm to oxovanadium (IV) complexes.

## Clc1cc2cccnc2c2ncccc12.Clc1cc2cccnc2c2ncccc12.O.O=S(=O)([O-])[O-].[O]=[V+2] [VO(Cl-phen)2, (aqua)bis(5-chloro-1,10-phenanthroline)oxovanadium (IV) sulfate]
Human sperm [1]
  JC-1 aggregate-positive sperm (%): 35%
Human sperm [2]
  Annexin V positive sperm (%): 99%
Human sperm [2]; listed as VO(Cl—phen)2
  Annexin V positive sperm (%): 99%
Human sperm [3]
  TUNEL positive sperm (%): 97%
Human sperm [3]; listed as VO(Cl—phen)2
  TUNEL positive sperm (%): Greater than 97%

## Clc1cc2cccnc2c2ncccc12.O.O.O=S(=O)([O-])[O-].[O]=[V+2] [VO(Cl-phen), (diaqua)(5-chloro-1,10-phenanthroline)oxovanadium (IV) sulfate]
Human sperm [1]
  JC-1 aggregate-positive sperm (%): 39%
Human sperm [2]
  Annexin V positive sperm (%): 90%
Human sperm [3]
  TUNEL positive sperm (%): 95%

## Cc1ccnc2c1ccc1c(C)ccnc12.Cc1ccnc2c1ccc1c(C)ccnc12.O.O=S(=O)([O-])[O-].[O-2].[V+4] [VO(Me2-phen)2, (aqua)bis(4,7-dimethyl-1,10-phenanthroline)oxovanadium (IV) sulfate]
Human sperm [1]
  JC-1 aggregate-positive sperm (%): 63%
Human sperm [2]
  Annexin V positive sperm (%): 17%
Human sperm [3]
  TUNEL positive sperm (%): 94%

## Cc1ccnc2c1ccc1c(C)ccnc12.O.O.O=S(=O)([O-])[O-].[O]=[V+2] [VO(Me2-phen), (diaqua)(4,7-dimethyl-1,10-phenanthroline)oxovanadium (IV) sulfate]
Human sperm [1]
  JC-1 aggregate-positive sperm (%): 38%
Human sperm [2]
  Annexin V positive sperm (%): 96%
Human sperm [3]
  TUNEL positive sperm (%): 97%

## O.O=S(=O)([O-])[O-].[O-2].[V+4].c1ccc(-c2ccccn2)nc1.c1ccc(-c2ccccn2)nc1 [VO(bipy)2, (aqua)bis(2,2′-bipyridyl)oxovanadium (IV) sulfate]
Human sperm [1]
  JC-1 aggregate-positive sperm (%): 94%
Human sperm [2]
  Annexin V positive sperm (%): 26%
Human sperm [3]
  TUNEL positive sperm (%): 40%

## O.O.O=S(=O)([O-])[O-].[O]=[V+2].c1ccc(-c2ccccn2)nc1 [VO(bipy), (diaqua)(2,2′-bipyridyl)oxovanadium (IV) sulfate]
Human sperm [1]
  JC-1 aggregate-positive sperm (%): 95%
Human sperm [2]
  Annexin V positive sperm (%): 36%
Human sperm [3]
  TUNEL positive sperm (%): 43%

## O.O=S(=O)([O-])[O-].[O]=[V+2].c1cnc2c(c1)ccc1cccnc12.c1cnc2c(c1)ccc1cccnc12 [VO(phen)2, (aqua)bis(1,10-phenanthroline)oxovanadium (IV) sulfate]
Human sperm [1]
  JC-1 aggregate-positive sperm (%): 25%
Human sperm [2]
  Annexin V positive sperm (%): 98%
Human sperm [3]
  TUNEL positive sperm (%): 98%

## O.O.O=S(=O)([O-])[O-].[O]=[V+2].c1cnc2c(c1)ccc1cccnc12 [VO(phen), (diaqua)(1,10-phenanthroline)oxovanadium (IV) sulfate]
Human sperm [1]
  JC-1 aggregate-positive sperm (%): 35%
Human sperm [2]
  Annexin V positive sperm (%): 97%
Human sperm [3]
  TUNEL positive sperm (%): 98%

## (aqua)bis(4,4′-dimethyl-2,2′-bipyridyl)oxovanadium (IV) sulfate [VO(Me2-bipy)2]
Human sperm [1]
  JC-1 aggregate-positive sperm (%): 62%
Human sperm [2]
  Annexin V positive sperm (%): 78%
Human sperm [3]
  TUNEL positive sperm (%): 63%

## (diaqua)(4,4′-dimethyl-2,2′-bipyridyl)oxovanadium (IV) sulfate [VO(Me2-bipy)]
Human sperm [1]
  JC-1 aggregate-positive sperm (%): 88%
Human sperm [2]
  Annexin V positive sperm (%): 47%
Human sperm [3]
  TUNEL positive sperm (%): 45%

## bis(5′-bromo-2′-hydroxyacetophenone)oxovanadium (IV) [VO(Br,OH-acph)2]
Human sperm [1]
  JC-1 aggregate-positive sperm (%): 83%
Human sperm [2]
  Annexin V positive sperm (%): 95%
Human sperm [3]
  TUNEL positive sperm (%): 98%
